Laboratory results taken from patent US6930075B1, “Fatty acid-based herbicidal composition” (priority 1990, dated 2005).

Key:
Corn = experiment: Greenhouse spray, phytotoxicity and mortality over time; assay type: in vivo; settings: for Mortality: plants died of 8;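 as to Phyto (Phytotoxicity, 0–10 rating scale): 0 means no damage and 10 means plant death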
Procedure: (§1) Herbicidal treatments were applied using a spray chamber fitted with a TeeJet 8006E flat fan nozzle (available from Spraying Systems Co., Wheaton, Ill.), calibrated to spray at a volume of 60 gpa at 40 psi. Treatment solutions were freshly prepared for each experiment. […] M. et al, J. Wiley and Sons, 1975, pp. 119–120, 218.
(§2) In a greenhouse facility four plant species were grown in 5.5 cm square pots using a potting soil mix comprising peat, vermiculite, sand and 4-10-10 fertilizer. Water soluble 20-20-20 fertilizer was used as a supplement for the plants as required. The plant species used were corn, oats, radish and morningglory. The plants were selected for use based on uniformity and quality. The corn plants used were in the 3 to 4 leaf stage and two plants were present in each pot. The oats used were in the 2 to 4 leaf stage and four plants were present per pot. The radish plants used were in the 3 to 5 leaf stage and one plant was used per pot. The morningglory were in the 2 to 4 leaf stage with one plant per pot. After spraying with a herbicidal formulation, the pots were arranged in a randomized complete block design in sub-irrigated watering trays, and included a water-treated control treatment. Four replicates (pots) were used for each treatment.
(§3) Herbicidal treatments were applied and recorded as in Example 1.

Radish Plants = experiment: as above; assay type: in vivo; settings: for Mortality: plants died of 4
Procedure: as §1, §2, §3

[1] = 9 Days after Treatment, listed as 0.1% C9 Na^+ Salt
[2] = 9 Days after Treatment, listed as 0.5% C9 Na^+ Salt
[3] = 9 Days after Treatment, listed as 1.0% C9 Na^+ Salt
[4] = 11 Days after Treatment, listed as 0.1% C9 Na^+ Salt
[5] = 11 Days after Treatment, listed as 0.5% C9 Na^+ Salt
[6] = 11 Days after Treatment, listed as 1.0% C9 Na^+ Salt
[7] = 16 Days after Treatment, listed as 0.1% C9 Na^+ Salt
[8] = 16 Days after Treatment, listed as 0.5% C9 Na^+ Salt
[9] = 16 Days after Treatment, listed as 1.0% C9 Na^+ Salt
[10] = 18 Days after Treatment, listed as 0.1% C9 Na^+ Salt
[11] = 18 Days after Treatment, listed as 0.5% C9 Na^+ Salt
[12] = 18 Days after Treatment, listed as 1.0% C9 Na^+ Salt
[13] = 21 Days after Treatment, listed as 0.1% C9 Na^+ Salt
[14] = 21 Days after Treatment, listed as 0.5% C9 Na^+ Salt
[15] = 21 Days after Treatment, listed as 1.0% C9 Na^+ Salt
[16] = 23 Days after Treatment, listed as 0.1% C9 Na^+ Salt
[17] = 23 Days after Treatment, listed as 0.5% C9 Na^+ Salt
[18] = 23 Days after Treatment, listed as 1.0% C9 Na^+ Salt
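For Phyto = Phytotoxicity (0–10 rating scale) in this document: 0 means no damage and 10 means plant death.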

## CCCCCCCCC(=O)[O-].[Na+] [Sodium pelargonate]
Corn; 2 Days after Treatment
  Phyto (Phytotoxicity, 0–10 rating scale): 0
  Mortality: 0
Corn; 4 Days after Treatment
  Phyto (Phytotoxicity, 0–10 rating scale): 0
  Mortality: 0
Corn; 7 Days after Treatment
  Phyto (Phytotoxicity, 0–10 rating scale): 0
  Mortality: 0
Corn; [1]
  Phyto (Phytotoxicity, 0–10 rating scale): 0
Corn; [2]
  Phyto (Phytotoxicity, 0–10 rating scale): 0.5
Corn; [3]
  Phyto (Phytotoxicity, 0–10 rating scale): 0
Corn; 9 Days after Treatment
  Mortality: 0
Corn; [4]
  Phyto (Phytotoxicity, 0–10 rating scale): 0
Corn; [5]
  Phyto (Phytotoxicity, 0–10 rating scale): 0.5
Corn; [6]
  Phyto (Phytotoxicity, 0–10 rating scale): 0
Corn; 11 Days after Treatment
  Mortality: 0
Corn; [7]
  Phyto (Phytotoxicity, 0–10 rating scale): 0.25
Corn; [8]
  Phyto (Phytotoxicity, 0–10 rating scale): 1.0
Corn; [9]
  Phyto (Phytotoxicity, 0–10 rating scale): 0.25
Corn; 16 Days after Treatment
  Mortality: 0
Corn; [10]
  Phyto (Phytotoxicity, 0–10 rating scale): 1.0
Corn; [11]
  Phyto (Phytotoxicity, 0–10 rating scale): 1.0
Corn; [12]
  Phyto (Phytotoxicity, 0–10 rating scale): 0.25
Corn; 18 Days after Treatment
  Mortality: 0
Corn; [13]
  Phyto (Phytotoxicity, 0–10 rating scale): 1.0
Corn; [14]
  Phyto (Phytotoxicity, 0–10 rating scale): 1.0
Corn; [15]
  Phyto (Phytotoxicity, 0–10 rating scale): 0.5
Corn; 21 Days after Treatment
  Mortality: 0
Corn; [16]
  Phyto (Phytotoxicity, 0–10 rating scale): 1.0
Corn; [17]
  Phyto (Phytotoxicity, 0–10 rating scale): 1.0
Corn; [18]
  Phyto (Phytotoxicity, 0–10 rating scale): 0.75
Corn; 23 Days after Treatment
  Mortality: 0
Corn; 25 Days after Treatment
  Phyto (Phytotoxicity, 0–10 rating scale): 1.0
  Mortality: 0
Corn; 28 Days after Treatment
  Phyto (Phytotoxicity, 0–10 rating scale): 0
  Mortality: 0
Corn; 30 Days after Treatment
  Phyto (Phytotoxicity, 0–10 rating scale): 0
  Mortality: 0
Corn; 32 Days after Treatment
  Phyto (Phytotoxicity, 0–10 rating scale): 0
  Mortality: 0
Corn; 35 Days after Treatment
  Phyto (Phytotoxicity, 0–10 rating scale): 0
  Mortality: 0
Corn; 42 Days after Treatment
  Phyto (Phytotoxicity, 0–10 rating scale): 0
  Mortality: 0
Corn; 46 Days after Treatment
  Phyto (Phytotoxicity, 0–10 rating scale): 0
  Mortality: 0
Corn; 57 Days after Treatment
  Phyto (Phytotoxicity, 0–10 rating scale): 0
  Mortality: 0
Radish Plants; 2 Days after Treatment
  Phyto = Phytotoxicity (0–10 rating scale): 0
  Mortality: 0
Radish Plants; 4 Days after Treatment
  Phyto = Phytotoxicity (0–10 rating scale): 0
  Mortality: 0
Radish Plants; 7 Days after Treatment, listed as 0.1% C9 Na^+ Salt
  Phyto = Phytotoxicity (0–10 rating scale): 0
Radish Plants; 7 Days after Treatment, listed as 0.5% C9 Na^+ Salt
  Phyto = Phytotoxicity (0–10 rating scale): 0
Radish Plants; 7 Days after Treatment, listed as 1.0% C9 Na^+ Salt
  Phyto = Phytotoxicity (0–10 rating scale): 0.5
Radish Plants; 7 Days after Treatment
  Mortality: 0
Radish Plants; [1]
  Phyto = Phytotoxicity (0–10 rating scale): 0
Radish Plants; [2]
  Phyto = Phytotoxicity (0–10 rating scale): 0
Radish Plants; [3]
  Phyto = Phytotoxicity (0–10 rating scale): 0.5
Radish Plants; 9 Days after Treatment
  Mortality: 0
Radish Plants; [4]
  Phyto = Phytotoxicity (0–10 rating scale): 0
Radish Plants; [5]
  Phyto = Phytotoxicity (0–10 rating scale): 0
Radish Plants; [6]
  Phyto = Phytotoxicity (0–10 rating scale): 0.5
Radish Plants; 11 Days after Treatment
  Mortality: 0
Radish Plants; [7]
  Phyto = Phytotoxicity (0–10 rating scale): 0
Radish Plants; [8]
  Phyto = Phytotoxicity (0–10 rating scale): 0
Radish Plants; [9]
  Phyto = Phytotoxicity (0–10 rating scale): 0.5
Radish Plants; 16 Days after Treatment
  Mortality: 0
Radish Plants; [10]
  Phyto = Phytotoxicity (0–10 rating scale): 0
Radish Plants; [11]
  Phyto = Phytotoxicity (0–10 rating scale): 0
Radish Plants; [12]
  Phyto = Phytotoxicity (0–10 rating scale): 0.5
Radish Plants; 18 Days after Treatment
  Mortality: 0
Radish Plants; [13]
  Phyto = Phytotoxicity (0–10 rating scale): 0
Radish Plants; [14]
  Phyto = Phytotoxicity (0–10 rating scale): 0
Radish Plants; [15]
  Phyto = Phytotoxicity (0–10 rating scale): 0.5
Radish Plants; 21 Days after Treatment
  Mortality: 0
Radish Plants; [16]
  Phyto = Phytotoxicity (0–10 rating scale): 0
Radish Plants; [17]
  Phyto = Phytotoxicity (0–10 rating scale): 0
Radish Plants; [18]
  Phyto = Phytotoxicity (0–10 rating scale): 0.5
Radish Plants; 23 Days after Treatment
  Mortality: 0
Radish Plants; 25 Days after Treatment, listed as 0.1% C9 Na^+ Salt
  Phyto = Phytotoxicity (0–10 rating scale): 0
Radish Plants; 25 Days after Treatment, listed as 0.5% C9 Na^+ Salt
  Phyto = Phytotoxicity (0–10 rating scale): 0
Radish Plants; 25 Days after Treatment, listed as 1.0% C9 Na^+ Salt
  Phyto = Phytotoxicity (0–10 rating scale): 0.5
Radish Plants; 25 Days after Treatment
  Mortality: 0
Radish Plants; 28 Days after Treatment, listed as 0.1% C9 Na^+ Salt
  Phyto = Phytotoxicity (0–10 rating scale): 0
Radish Plants; 28 Days after Treatment, listed as 0.5% C9 Na^+ Salt
  Phyto = Phytotoxicity (0–10 rating scale): 0
Radish Plants; 28 Days after Treatment, listed as 1.0% C9 Na^+ Salt
  Phyto = Phytotoxicity (0–10 rating scale): 0.5
Radish Plants; 28 Days after Treatment
  Mortality: 0
Radish Plants; 30 Days after Treatment, listed as 0.1% C9 Na^+ Salt
  Phyto = Phytotoxicity (0–10 rating scale): 0
Radish Plants; 30 Days after Treatment, listed as 0.5% C9 Na^+ Salt
  Phyto = Phytotoxicity (0–10 rating scale): 0
Radish Plants; 30 Days after Treatment, listed as 1.0% C9 Na^+ Salt
  Phyto = Phytotoxicity (0–10 rating scale): 0.5
Radish Plants; 30 Days after Treatment
  Mortality: 0
Radish Plants; 32 Days after Treatment, listed as 0.1% C9 Na^+ Salt
  Phyto = Phytotoxicity (0–10 rating scale): 0
Radish Plants; 32 Days after Treatment, listed as 0.5% C9 Na^+ Salt
  Phyto = Phytotoxicity (0–10 rating scale): 0
Radish Plants; 32 Days after Treatment, listed as 1.0% C9 Na^+ Salt
  Phyto = Phytotoxicity (0–10 rating scale): 0.5
Radish Plants; 32 Days after Treatment
  Mortality: 0
Radish Plants; 35 Days after Treatment, listed as 0.1% C9 Na^+ Salt
  Phyto = Phytotoxicity (0–10 rating scale): 0
Radish Plants; 35 Days after Treatment, listed as 0.5% C9 Na^+ Salt
  Phyto = Phytotoxicity (0–10 rating scale): 0
Radish Plants; 35 Days after Treatment, listed as 1.0% C9 Na^+ Salt
  Phyto = Phytotoxicity (0–10 rating scale): 0.5
Radish Plants; 35 Days after Treatment
  Mortality: 0
Radish Plants; 42 Days after Treatment, listed as 0.1% C9 Na^+ Salt
  Phyto = Phytotoxicity (0–10 rating scale): 0
Radish Plants; 42 Days after Treatment, listed as 0.5% C9 Na^+ Salt
  Phyto = Phytotoxicity (0–10 rating scale): 0
Radish Plants; 42 Days after Treatment, listed as 1.0% C9 Na^+ Salt
  Phyto = Phytotoxicity (0–10 rating scale): 0.5
Radish Plants; 42 Days after Treatment
  Mortality: 0
Radish Plants; 46 Days after Treatment, listed as 0.1% C9 Na^+ Salt
  Phyto = Phytotoxicity (0–10 rating scale): 0
Radish Plants; 46 Days after Treatment, listed as 0.5% C9 Na^+ Salt
  Phyto = Phytotoxicity (0–10 rating scale): 0
Radish Plants; 46 Days after Treatment, listed as 1.0% C9 Na^+ Salt
  Phyto = Phytotoxicity (0–10 rating scale): 0.5
Radish Plants; 46 Days after Treatment
  Mortality: 0
Radish Plants; 57 Days after Treatment, listed as 0.1% C9 Na^+ Salt
  Phyto = Phytotoxicity (0–10 rating scale): 0
Radish Plants; 57 Days after Treatment, listed as 0.5% C9 Na^+ Salt
  Phyto = Phytotoxicity (0–10 rating scale): 0
Radish Plants; 57 Days after Treatment, listed as 1.0% C9 Na^+ Salt
  Phyto = Phytotoxicity (0–10 rating scale): 0.5
Radish Plants; 57 Days after Treatment
  Mortality: 0
